# Target: T1, human TLR7 (Homo sapiens, UniProt Q9NYK1)
# T1 construct: expressed in transfected cells; host or cells: HEK293
# T1 sequence (Q9NYK1 27-1049): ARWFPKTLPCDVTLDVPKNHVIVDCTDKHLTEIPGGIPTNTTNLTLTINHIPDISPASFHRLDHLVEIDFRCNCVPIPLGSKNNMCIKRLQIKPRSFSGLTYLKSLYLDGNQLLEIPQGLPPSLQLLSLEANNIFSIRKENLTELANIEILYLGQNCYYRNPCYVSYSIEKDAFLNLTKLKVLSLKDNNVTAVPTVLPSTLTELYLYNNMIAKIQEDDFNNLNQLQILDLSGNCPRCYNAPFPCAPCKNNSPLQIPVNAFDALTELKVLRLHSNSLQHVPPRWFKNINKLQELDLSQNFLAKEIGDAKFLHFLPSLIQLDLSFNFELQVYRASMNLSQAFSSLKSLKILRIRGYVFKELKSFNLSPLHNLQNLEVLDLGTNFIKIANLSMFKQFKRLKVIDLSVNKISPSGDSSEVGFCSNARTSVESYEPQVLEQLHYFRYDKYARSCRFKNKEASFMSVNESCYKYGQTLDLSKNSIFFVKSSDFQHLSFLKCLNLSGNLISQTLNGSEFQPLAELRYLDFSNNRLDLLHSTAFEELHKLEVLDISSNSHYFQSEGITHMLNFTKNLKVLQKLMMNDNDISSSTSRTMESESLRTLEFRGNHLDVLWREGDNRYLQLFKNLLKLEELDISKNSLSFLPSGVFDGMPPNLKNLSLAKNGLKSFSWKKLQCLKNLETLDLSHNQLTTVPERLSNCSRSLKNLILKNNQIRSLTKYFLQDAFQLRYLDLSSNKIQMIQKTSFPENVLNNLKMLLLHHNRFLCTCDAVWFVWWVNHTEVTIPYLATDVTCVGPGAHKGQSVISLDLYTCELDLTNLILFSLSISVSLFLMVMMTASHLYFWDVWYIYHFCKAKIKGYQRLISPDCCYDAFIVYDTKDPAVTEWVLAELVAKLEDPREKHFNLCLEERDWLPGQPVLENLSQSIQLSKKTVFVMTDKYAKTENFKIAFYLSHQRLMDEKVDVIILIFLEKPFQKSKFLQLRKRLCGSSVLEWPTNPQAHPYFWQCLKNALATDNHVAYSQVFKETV
# Assay: TLR7 wild type NFκB-luc cellular reporter assay
# Type: cell-based
# Design: unit not given here
# Settings: HEK293 NFκB-luc reporter, 6 hours incubation; second part of table
# Procedure: The ability of compounds to activate human TLR7 and/or TLR8 was assessed in a cellular reporter assay using HEK293 cells transiently transfected with a TLR7 or TLR8 expression vector and NFκB-luc reporter construct. In one instance the TLR expression construct expresses the respective wild type sequence or a mutant sequence comprising a deletion in the second leucine-rich repeat of the TLR.
# Briefly, HEK293 cells were grown in culture medium (DMEM supplemented with 10% FCS and 2 mM Glutamine). For transfection of cells in 10 cm dishes, cells were detached with Trypsin-EDTA, transfected with a mix of CMV-TLR7 or TLR8 plasmid (750 ng), NFκB-luc plasmid (375 ng) and a transfection reagent and incubated 24 hours at 37° C. in a humidified 5% CO2 atmosphere. Transfected cells were then detached with Trypsin-EDTA, washed in PBS and resuspended in medium to a density of 1.67×10^5 cells/mL. Thirty microliters of cells were then dispensed into each well in 384-well plates, where 10 μL of compound in 4% DMSO was already present. […] Dose response curves were generated from measurements performed in quadruplicates. Lowest effective concentrations (LEC) values, defined as the concentration that induces an effect which is at least two fold above the standard deviation of the assay, were determined for each compound.
row,TLR7-wt (LEC),Structure (SMILES)
1,0.57,CCC[C@@H](CCO)Nc1nc(N)nc2ccc(CC)cc12 [Compound 25]
2,3.60,CCC[C@@H](CCO)Nc1nc(N)nc2ccc(C(C)C)cc12 [Compound 26]
3,1.88,CCC[C@@H](CO)Nc1nc(N)nc2cc(CO)ccc12 [Compound 33]
4,10.77,CCC[C@@H](CO)Nc1nc(N)nc2ccc(CO)cc12 [Compound 34]
5,5.64,CCCCNc1nc(N)nc2ccc(OC)cc12 [Compound 40]
6,4.54,CCC[C@@H](CO)Nc1nc(N)nc2c(C)cccc12 [Compound 43]
7,0.43,CCC[C@@H](CO)Nc1nc(N)nc2cc(C)ccc12 [Compound 44]
8,0.41,CCC[C@@H](CO)Nc1nc(N)nc2ccc(C)cc12 [Compound 45]
9,0.77,CCC[C@@H](CO)Nc1nc(N)nc2cccc(C)c12 [Compound 46]
10,0.67,CCC[C@@H](CO)Nc1nc(N)nc2c(F)cccc12 [Compound 47]
11,0.54,CCC[C@@H](CO)Nc1nc(N)nc2cc(F)ccc12 [Compound 48]
12,2.09,CCC[C@@H](CO)Nc1nc(N)nc2ccc(F)cc12 [Compound 49]
13,0.60,CCCC[C@@H](CO)Nc1nc(N)nc2ccc(C)cc12 [Compound 51]
14,0.54,CCC[C@@H](CCO)Nc1nc(N)nc2ccc(C)cc12 [Compound 54]
15,0.39,CCC[C@@H](CO)Nc1nc(N)nc2cc(OC)ccc12 [Compound 56]
16,10.77,CCC[C@@H](CO)Nc1nc(N)nc2ccc(OC)cc12 [Compound 57]

row,TLR7-wt (LEC),Structure (SMILES)
1,0.18,CCC[C@@H](CO)Nc1nc(N)nc2cccc(OC)c12 [Compound 58]
2,0.23,CCCC[C@@H](CO)Nc1nc(N)nc2cc(F)ccc12 [Compound 60]
3,0.57,CCCC[C@@H](CO)Nc1nc(N)nc2ccc(F)cc12 [Compound 61]
4,0.94,CCC[C@@H](CCO)Nc1nc(N)nc2ccc(F)cc12 [Compound 65]
5,0.41,CCC[C@@H](CO)Nc1nc(N)nc2cc(Cl)ccc12 [Compound 70]
6,2.59,CCC[C@@H](CO)Nc1nc(N)nc2cc(F)c(F)cc12 [Compound 72]
7,0.44,CCCC[C@@H](CCO)Nc1nc(N)nc2ccc(C)cc12 [Compound 74]
8,0.26,CCCC[C@@H](CO)Nc1nc(N)nc2cc(OC)ccc12 [Compound 76]
9,3.48,CCCC[C@@H](CO)Nc1nc(N)nc2ccc(OC)cc12 [Compound 77]
10,0.20,CCC[C@@H](CCO)Nc1nc(N)nc2cc(OC)ccc12 [Compound 78]
11,11.87,CCC[C@@H](CCO)Nc1nc(N)nc2ccc(OC)cc12 [Compound 79]
12,>25,CC[C@H](C)[C@@H](CO)Nc1nc(N)nc2ccc(OC)cc12 [Compound 80]
13,2.01,CCC[C@@H](CO)Nc1nc(N)nc2cc(C(=O)OC)ccc12 [Compound 86]
14,0.16,CCCC[C@@H](CCO)Nc1nc(N)nc2cc(OC)ccc12 [Compound 87]
15,1.85,CCCC[C@@H](CCO)Nc1nc(N)nc2ccc(OC)cc12 [Compound 88]

# Continued, compound first:
row,Structure (SMILES),TLR7-wt (LEC)
1,CCCCNc1nc(N)nc2cccc(OC)c12 [Compound 9],0.41
2,CCC[C@@H](CO)Nc1nc(N)nc2cccc(-c3ccccc3)c12 [Compound 10],6.08
3,CCCCNc1nc(N)nc2cccc(OCCOC)c12 [Compound 11],0.08
4,CCCCCNc1nc(N)nc2ccc(Br)cc12 [Compound 13],0.76
5,CCCCNc1nc(N)nc2cc(C(=O)OC)ccc12 [Compound 17],5.10
6,CCCCNc1nc(N)nc2cc(CO)ccc12 [Compound 18],0.13
7,CCCCNc1nc(N)nc2ccc(-n3cnc(C)c3)cc12 [Compound 21],>25
8,CCCCNc1nc(N)nc2ccc(CO)cc12 [Compound 24],0.93
9,CCC[C@@H](CCO)Nc1nc(N)nc2ccc(Oc3ccc(C(F)(F)F)cc3Cl)cc12 [Compound 27],12.95
10,CCCCNc1nc(N)nc2cc(Cl)c3c(c12)OCCO3 [Compound 28],2.06
11,CCC[C@@H](CCO)Nc1nc(N)nc2ccc(Oc3ccc(C(F)(F)F)cc3)cc12 [Compound 29],11.13
12,C#CCOc1cccc2nc(N)nc(NCCCC)c12 [Compound 30],0.05
13,CCCCNc1nc(N)nc2cccc(OC(C)C)c12 [Compound 31],0.09
14,CCCCNc1nc(N)nc2cccc(CCc3ccccc3)c12 [Compound 32],0.13
15,CCCCNc1nc(N)nc2ccc(Oc3ccc(C(F)(F)F)cc3Cl)cc12 [Compound 35],4.15
16,CCCCNc1nc(N)nc2cccc(C)c12 [Compound 36],0.47
17,CCCCNc1nc(N)nc2c(F)cccc12 [Compound 37],0.16
18,CCCCNc1nc(N)nc2ccc(F)cc12 [Compound 38],0.29
19,CCCCNc1nc(N)nc2cc(OC)ccc12 [Compound 39],0.94
20,CCCCNc1nc(N)nc2cccc(Cl)c12 [Compound 41],0.99
21,CCCCNc1nc(N)nc2cc(F)c(F)cc12 [Compound 42],1.81

row,Structure (SMILES),TLR7-wt (LEC)
1,CCC[C@@H](CO)Nc1nc(N)nc2cccc(F)c12 [Compound 50],0.32
2,CCCC[C@@H](CO)Nc1nc(N)nc2cccc(C)c12 [Compound 52],0.41
3,CCC[C@@H](CCO)Nc1nc(N)nc2cc(C)ccc12 [Compound 53],0.06
4,CCCC[C@@H](CO)Nc1nc(N)nc2c(F)cccc12 [Compound 59],0.29
5,CCCC[C@@H](CO)Nc1nc(N)nc2cccc(F)c12 [Compound 62],0.75
6,CCC[C@@H](CCO)Nc1nc(N)nc2c(F)cccc12 [Compound 63],0.29
7,CCC[C@@H](CCO)Nc1nc(N)nc2cc(F)ccc12 [Compound 64],0.11
8,CCC[C@@H](CCO)Nc1nc(N)nc2cccc(F)c12 [Compound 66],0.22
9,CC[C@H](C)[C@@H](CO)Nc1nc(N)nc2c(F)cccc12 [Compound 67],2.50
10,CC[C@H](C)[C@@H](CO)Nc1nc(N)nc2ccc(F)cc12 [Compound 68],4.57
11,CCC[C@@H](CO)Nc1nc(N)nc2c(Cl)cccc12 [Compound 69],7.48
12,CCC[C@@H](CO)Nc1nc(N)nc2cccc(Cl)c12 [Compound 71],1.02
13,CCCC[C@@H](CCO)Nc1nc(N)nc2cc(C)ccc12 [Compound 73],0.03
14,CCCC[C@@H](CCO)Nc1nc(N)nc2cccc(C)c12 [Compound 75],0.14
15,CCCC[C@@H](CCO)Nc1nc(N)nc2c(F)cccc12 [Compound 81],0.11
16,CCCC[C@@H](CCO)Nc1nc(N)nc2cc(F)ccc12 [Compound 82],0.04
17,CCCC[C@@H](CCO)Nc1nc(N)nc2ccc(F)cc12 [Compound 83],1.59
18,CCCC[C@@H](CCO)Nc1nc(N)nc2cccc(F)c12 [Compound 84],0.44
19,CCCCNc1nc(N)nc2ccc(Br)cc12 [Compound 85],0.51
20,CCCCNc1nc(N)nc2cc(OC)c(OCc3ccccc3)cc12 [Compound 89],1.84

# Source: patent US8916575B2, “Quinazoline derivatives for the treatment of viral infections and further diseases” (Janssen R&D Ireland, priority 2011, dated 2014)
